Experimental data taken from paper PMC6152937 (Bioorganic & medicinal chemistry letters, 2018).

Assays:
5-HT6 = 5-HT6 (Homo sapiens, UniProt P50406); assay: Radio-ligand binding assay screen; details: cloned receptor; considered inactive
rSigma1 = rSigma1 (Rattus norvegicus, UniProt Q9R0C9); assay: Radio-ligand binding assay screen; details: cloned receptor; considered inactive
MOR = MOR (Homo sapiens, UniProt P35372); assay: Radio-ligand binding assay screen; details: cloned receptor; considered inactive
Histamine receptor H1 = Histamine receptor H1 (Homo sapiens, UniProt P35367); assay: Radio-ligand binding assay screen; details: cloned receptor; considered inactive
Muscarinic receptor M1 = Muscarinic receptor M1 (Homo sapiens, UniProt P11229); assay: Radio-ligand binding assay screen; details: cloned receptor; considered inactive
5-HT5A = 5-HT5A (Homo sapiens, UniProt P47898); assay: Radio-ligand binding assay screen; details: cloned receptor; considered inactive
Histamine receptor H4 = Histamine receptor H4 (Homo sapiens, UniProt Q9H3N8); assay: Radio-ligand binding assay screen; details: cloned receptor; considered inactive
β3 adrenoreceptor = β3 adrenoreceptor (Homo sapiens, UniProt P13945); assay: Radio-ligand binding assay screen; details: cloned receptor; considered inactive
β3 adrenoreceptor, sequence (P13945 whole entry): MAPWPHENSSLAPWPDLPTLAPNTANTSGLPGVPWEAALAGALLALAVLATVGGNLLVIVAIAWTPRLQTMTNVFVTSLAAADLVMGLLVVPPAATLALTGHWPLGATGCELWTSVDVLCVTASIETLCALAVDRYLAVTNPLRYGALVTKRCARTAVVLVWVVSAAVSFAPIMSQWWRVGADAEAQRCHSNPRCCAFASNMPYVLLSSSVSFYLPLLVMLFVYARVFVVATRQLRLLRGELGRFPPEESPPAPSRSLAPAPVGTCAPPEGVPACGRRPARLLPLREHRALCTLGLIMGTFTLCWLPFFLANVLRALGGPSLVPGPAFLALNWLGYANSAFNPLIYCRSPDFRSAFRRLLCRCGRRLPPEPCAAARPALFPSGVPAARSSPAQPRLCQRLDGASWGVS

Muscarinic receptor MS = Muscarinic receptor MS (Homo sapiens, UniProt P08912); assay: Radio-ligand binding assay screen; details: cloned receptor; considered inactive
α1Δ adrenoreceptor = α1Δ adrenoreceptor (Homo sapiens, UniProt P25100); assay: Radio-ligand binding assay screen; details: cloned receptor; considered inactive
α1Δ adrenoreceptor, sequence (P25100 whole entry, stated change not applied): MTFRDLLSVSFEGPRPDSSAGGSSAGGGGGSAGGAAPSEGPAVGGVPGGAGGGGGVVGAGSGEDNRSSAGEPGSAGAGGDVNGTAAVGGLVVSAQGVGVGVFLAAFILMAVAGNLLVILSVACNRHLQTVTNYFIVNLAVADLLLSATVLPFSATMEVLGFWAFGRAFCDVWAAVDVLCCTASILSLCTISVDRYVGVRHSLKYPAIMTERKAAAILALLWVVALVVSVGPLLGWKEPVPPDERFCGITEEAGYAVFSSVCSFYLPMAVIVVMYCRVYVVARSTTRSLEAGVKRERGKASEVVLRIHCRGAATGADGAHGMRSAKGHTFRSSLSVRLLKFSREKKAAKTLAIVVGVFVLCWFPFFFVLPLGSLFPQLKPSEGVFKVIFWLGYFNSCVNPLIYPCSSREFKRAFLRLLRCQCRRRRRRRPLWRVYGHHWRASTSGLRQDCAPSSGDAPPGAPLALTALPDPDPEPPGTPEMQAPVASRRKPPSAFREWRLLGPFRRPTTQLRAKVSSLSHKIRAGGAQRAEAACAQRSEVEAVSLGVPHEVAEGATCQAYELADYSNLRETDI

5-HT2B = 5-HT2B (Homo sapiens, UniProt P41595); assay: Radio-ligand binding assay screen; details: cloned receptor; considered inactive
5-HT2B, sequence (P41595 whole entry): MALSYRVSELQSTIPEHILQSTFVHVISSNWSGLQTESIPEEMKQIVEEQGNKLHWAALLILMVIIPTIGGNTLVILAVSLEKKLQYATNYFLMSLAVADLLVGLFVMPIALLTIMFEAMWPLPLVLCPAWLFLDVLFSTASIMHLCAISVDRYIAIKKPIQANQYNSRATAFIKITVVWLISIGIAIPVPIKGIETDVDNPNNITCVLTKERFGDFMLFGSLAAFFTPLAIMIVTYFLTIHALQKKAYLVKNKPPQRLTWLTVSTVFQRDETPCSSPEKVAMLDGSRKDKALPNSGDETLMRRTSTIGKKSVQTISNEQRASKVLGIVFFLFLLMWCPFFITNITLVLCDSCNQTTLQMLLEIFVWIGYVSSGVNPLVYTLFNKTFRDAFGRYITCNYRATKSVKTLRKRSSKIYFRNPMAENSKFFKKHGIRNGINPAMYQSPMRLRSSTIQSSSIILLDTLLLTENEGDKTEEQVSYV

5-HT1D = 5-HT1D (Homo sapiens, UniProt P28221); assay: Radio-ligand binding assay screen; details: cloned receptor; considered inactive
DOR = DOR (Homo sapiens, UniProt P41143); assay: Radio-ligand binding assay screen; details: cloned receptor; considered inactive
DOR, sequence (P41143 whole entry): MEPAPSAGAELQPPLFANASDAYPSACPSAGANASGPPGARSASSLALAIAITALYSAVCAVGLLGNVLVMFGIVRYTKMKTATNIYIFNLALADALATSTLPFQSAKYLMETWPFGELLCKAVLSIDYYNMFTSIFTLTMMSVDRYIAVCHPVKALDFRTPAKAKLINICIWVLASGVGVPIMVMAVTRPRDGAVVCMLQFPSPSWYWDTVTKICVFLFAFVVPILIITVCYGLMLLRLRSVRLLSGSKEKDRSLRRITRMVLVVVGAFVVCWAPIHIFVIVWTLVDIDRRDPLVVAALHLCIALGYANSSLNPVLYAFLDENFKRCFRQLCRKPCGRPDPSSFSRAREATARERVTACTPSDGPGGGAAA

β1 adrenoreceptor = β1 adrenoreceptor (Homo sapiens, UniProt P08588); assay: Radio-ligand binding assay screen; details: cloned receptor; considered inactive
Dopamine receptor D1 = Dopamine receptor D1 (Homo sapiens, UniProt P21728); assay: Radio-ligand binding assay screen; details: cloned receptor; considered inactive
rSigma2 = rSigma2 (Rattus norvegicus, UniProt Q5U3Y7); assay: Radio-ligand binding assay screen; details: cloned receptor; considered inactive
Dopamine receptor D5 = Dopamine receptor D5 (Homo sapiens, UniProt P21918); assay: Radio-ligand binding assay screen; details: cloned receptor; considered inactive
α2A adrenoreceptor = α2A adrenoreceptor (Homo sapiens, UniProt P08913); assay: Radio-ligand binding assay screen; details: cloned receptor; considered inactive
5-HT2C = 5-HT2C (Homo sapiens, UniProt P28335); assay: Radio-ligand binding assay screen; details: cloned receptor; considered inactive
Muscarinic receptor M2 = Muscarinic receptor M2 (Homo sapiens, UniProt P08172); assay: Radio-ligand binding assay screen; details: cloned receptor; considered inactive
Histamine receptor H3 = Histamine receptor H3 (Homo sapiens, UniProt Q9Y5N1); assay: Radio-ligand binding assay screen; details: cloned receptor; considered inactive
NET = NET (Homo sapiens, UniProt P23975); assay: Radio-ligand binding assay screen; details: cloned transporter; considered inactive
Muscarinic receptor M4 = Muscarinic receptor M4 (Homo sapiens, UniProt P08173); assay: Radio-ligand binding assay screen; details: cloned receptor; considered inactive
Dopamine receptor D3 = Dopamine receptor D3 (Homo sapiens, UniProt P35462); assay: Radio-ligand binding assay screen; details: cloned receptor; considered inactive
Histamine receptor H2 = Histamine receptor H2 (Homo sapiens, UniProt P25021); assay: Radio-ligand binding assay screen; details: cloned receptor; considered inactive
Histamine receptor H2, sequence (P25021 whole entry): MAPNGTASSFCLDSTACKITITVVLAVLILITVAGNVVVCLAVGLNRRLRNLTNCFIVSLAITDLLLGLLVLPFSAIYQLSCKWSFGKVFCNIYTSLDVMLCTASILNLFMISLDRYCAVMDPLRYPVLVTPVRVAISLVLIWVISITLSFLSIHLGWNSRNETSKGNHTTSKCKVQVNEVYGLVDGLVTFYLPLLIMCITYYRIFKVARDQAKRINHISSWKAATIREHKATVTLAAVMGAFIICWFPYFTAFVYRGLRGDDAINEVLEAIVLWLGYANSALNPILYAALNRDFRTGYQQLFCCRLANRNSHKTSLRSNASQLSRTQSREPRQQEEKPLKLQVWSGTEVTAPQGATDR

β2 adrenoreceptor = β2 adrenoreceptor (Homo sapiens, UniProt P07550); assay: Radio-ligand binding assay screen; details: cloned receptor; considered inactive
5-HT1B = 5-HT1B (Homo sapiens, UniProt P28222); assay: Radio-ligand binding assay screen; details: cloned receptor; considered inactive
5-HT1E = 5-HT1E (Homo sapiens, UniProt P28566); assay: Radio-ligand binding assay screen; details: cloned receptor; considered inactive
Dopamine receptor D2 = Dopamine receptor D2 (Homo sapiens, UniProt P14416); assay: Radio-ligand binding assay screen; details: cloned receptor; considered inactive
SERT = SERT (Homo sapiens, UniProt P31645); assay: Radio-ligand binding assay screen; details: cloned transporter; considered inactive
α1A adrenoreceptor = α1A adrenoreceptor (Homo sapiens, UniProt P35348); assay: Radio-ligand binding assay screen; details: cloned receptor; considered inactive
5-HT2A = 5-HT2A (Homo sapiens, UniProt P28223); assay: Radio-ligand binding assay screen; details: cloned receptor; considered inactive
KOR = KOR (Homo sapiens, UniProt P41145); assay: Radio-ligand binding assay screen; details: cloned receptor; considered inactive
5-HT3 = 5-HT3 (Homo sapiens, UniProt P46098); assay: Radio-ligand binding assay screen; details: cloned receptor; considered inactive
Dopamine receptor D4 = Dopamine receptor D4 (Homo sapiens, UniProt P21917); assay: Radio-ligand binding assay screen; details: cloned receptor; considered inactive
α1B adrenoreceptor = α1B adrenoreceptor (Homo sapiens, UniProt P35368); assay: Radio-ligand binding assay screen; details: cloned receptor; considered inactive
α1B adrenoreceptor, sequence (P35368 whole entry): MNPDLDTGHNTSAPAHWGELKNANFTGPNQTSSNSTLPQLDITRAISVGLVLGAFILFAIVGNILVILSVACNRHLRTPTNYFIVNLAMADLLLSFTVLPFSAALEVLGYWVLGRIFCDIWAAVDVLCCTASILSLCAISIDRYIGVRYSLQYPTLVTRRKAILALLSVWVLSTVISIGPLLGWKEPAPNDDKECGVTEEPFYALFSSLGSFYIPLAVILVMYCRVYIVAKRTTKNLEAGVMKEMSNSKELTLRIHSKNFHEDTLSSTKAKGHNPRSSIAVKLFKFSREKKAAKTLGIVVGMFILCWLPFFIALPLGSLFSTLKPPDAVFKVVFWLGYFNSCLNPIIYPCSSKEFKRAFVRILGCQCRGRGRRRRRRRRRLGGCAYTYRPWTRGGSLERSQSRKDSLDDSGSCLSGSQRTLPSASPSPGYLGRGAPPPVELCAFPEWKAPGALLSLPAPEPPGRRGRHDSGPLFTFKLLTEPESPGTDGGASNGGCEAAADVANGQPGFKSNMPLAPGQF

5-HT7 = 5-HT7 (Homo sapiens, UniProt P34969); assay: Radio-ligand binding assay screen; details: cloned receptor; considered inactive
5-HT1A = 5-HT1A (Homo sapiens, UniProt P08908); assay: Radio-ligand binding assay screen; details: cloned receptor; considered inactive
Muscarinic receptor M3 = Muscarinic receptor M3 (Homo sapiens, UniProt P20309); assay: Radio-ligand binding assay screen; details: cloned receptor; considered inactive
DAT = DAT (Homo sapiens, UniProt Q01959); assay: Radio-ligand binding assay screen; details: cloned transporter; considered inactive
human GABAB receptor [1] = molecular target: T1, human GABAB receptor (Homo sapiens, UniProt Q9UBS5); details: concentrations up to 100 μM, racemic mixtures
T1 sequence (Q9UBS5 15-961 limits assumed): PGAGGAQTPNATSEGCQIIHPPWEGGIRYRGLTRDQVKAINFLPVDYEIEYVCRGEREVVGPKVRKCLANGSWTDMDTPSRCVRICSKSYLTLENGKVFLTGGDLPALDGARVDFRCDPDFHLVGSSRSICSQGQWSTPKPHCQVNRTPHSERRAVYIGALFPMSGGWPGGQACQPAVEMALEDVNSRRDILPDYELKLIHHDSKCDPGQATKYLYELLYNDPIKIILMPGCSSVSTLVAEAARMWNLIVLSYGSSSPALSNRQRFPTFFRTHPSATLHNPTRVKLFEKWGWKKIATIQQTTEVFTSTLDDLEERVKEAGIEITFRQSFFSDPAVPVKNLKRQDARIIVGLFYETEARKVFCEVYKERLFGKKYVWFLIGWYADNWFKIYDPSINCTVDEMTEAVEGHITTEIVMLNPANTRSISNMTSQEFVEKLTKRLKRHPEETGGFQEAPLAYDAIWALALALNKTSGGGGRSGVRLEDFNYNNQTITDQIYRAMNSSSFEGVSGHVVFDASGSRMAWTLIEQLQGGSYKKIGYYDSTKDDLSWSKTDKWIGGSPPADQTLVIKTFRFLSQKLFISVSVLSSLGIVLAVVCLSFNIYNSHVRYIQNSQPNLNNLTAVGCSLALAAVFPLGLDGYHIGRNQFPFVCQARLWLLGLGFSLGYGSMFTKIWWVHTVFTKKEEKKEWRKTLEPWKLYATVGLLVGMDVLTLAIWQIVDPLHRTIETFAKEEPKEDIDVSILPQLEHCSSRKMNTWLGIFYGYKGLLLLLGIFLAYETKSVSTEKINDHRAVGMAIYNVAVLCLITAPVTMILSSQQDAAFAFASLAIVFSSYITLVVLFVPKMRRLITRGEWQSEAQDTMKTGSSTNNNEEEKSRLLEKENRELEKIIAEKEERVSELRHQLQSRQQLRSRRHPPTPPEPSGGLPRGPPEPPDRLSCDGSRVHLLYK
T1 sequence (O75899 42-941 partner): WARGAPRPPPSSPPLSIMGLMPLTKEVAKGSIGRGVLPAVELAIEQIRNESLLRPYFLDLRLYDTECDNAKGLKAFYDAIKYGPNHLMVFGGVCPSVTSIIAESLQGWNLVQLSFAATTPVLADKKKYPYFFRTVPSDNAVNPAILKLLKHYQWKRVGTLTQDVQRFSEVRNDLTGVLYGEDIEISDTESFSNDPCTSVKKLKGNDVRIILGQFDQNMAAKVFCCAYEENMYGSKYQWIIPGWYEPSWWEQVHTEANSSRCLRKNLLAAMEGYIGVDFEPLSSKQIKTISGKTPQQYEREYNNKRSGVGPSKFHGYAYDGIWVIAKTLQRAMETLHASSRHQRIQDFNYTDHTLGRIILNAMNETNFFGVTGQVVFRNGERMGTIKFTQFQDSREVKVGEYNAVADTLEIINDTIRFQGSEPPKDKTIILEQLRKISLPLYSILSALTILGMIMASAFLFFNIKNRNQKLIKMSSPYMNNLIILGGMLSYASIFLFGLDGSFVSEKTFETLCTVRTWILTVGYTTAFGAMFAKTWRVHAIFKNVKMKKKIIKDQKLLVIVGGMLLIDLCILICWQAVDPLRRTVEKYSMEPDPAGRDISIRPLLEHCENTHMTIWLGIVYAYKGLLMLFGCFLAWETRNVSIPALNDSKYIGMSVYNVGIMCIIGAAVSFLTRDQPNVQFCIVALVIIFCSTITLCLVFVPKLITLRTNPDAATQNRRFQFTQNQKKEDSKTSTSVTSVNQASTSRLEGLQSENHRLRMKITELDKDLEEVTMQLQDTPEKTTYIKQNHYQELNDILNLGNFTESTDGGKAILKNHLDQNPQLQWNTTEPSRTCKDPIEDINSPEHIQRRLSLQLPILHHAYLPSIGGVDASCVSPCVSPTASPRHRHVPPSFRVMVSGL

human GABAB receptor [2] = molecular target: T1, human GABAB receptor; details: read-out: GABAB EC50; agonist activity, HEK293/Cre-luc, ± standard error; ref [19]; cited from earlier work

5-HT6, sequence (P50406 whole entry): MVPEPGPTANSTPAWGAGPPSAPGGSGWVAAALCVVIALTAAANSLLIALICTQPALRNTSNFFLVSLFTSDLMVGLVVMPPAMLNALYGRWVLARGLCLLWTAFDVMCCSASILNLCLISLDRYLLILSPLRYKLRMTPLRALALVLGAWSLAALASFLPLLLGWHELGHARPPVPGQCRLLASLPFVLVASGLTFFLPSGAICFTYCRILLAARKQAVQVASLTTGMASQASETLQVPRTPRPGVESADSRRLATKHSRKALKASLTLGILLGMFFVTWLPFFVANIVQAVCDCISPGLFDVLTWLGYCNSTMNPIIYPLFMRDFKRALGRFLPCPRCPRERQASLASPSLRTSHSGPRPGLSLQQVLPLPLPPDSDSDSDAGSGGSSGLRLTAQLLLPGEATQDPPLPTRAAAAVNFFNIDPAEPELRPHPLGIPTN

Compound: CC(C)(C)OC(=O)NC(c1ccccc1)C(F)(F)C(=O)c1ccc2ccccc2c1 (stereo not drawn) [Compound 11]
- inhibition, 5-HT6 (5-HT6): less than 30%
- inhibition, rSigma1 (rSigma1): less than 30%
- inhibition, MOR (MOR): less than 30%
- inhibition, H1 (Histamine receptor H1): less than 30%
- inhibition, M1 (Muscarinic receptor M1): less than 30%
- inhibition, 5-HT5A (5-HT5A): less than 30%
- inhibition, H4 (Histamine receptor H4): less than 30%
- inhibition, β3 (β3 adrenoreceptor): less than 30%
- inhibition, MS (Muscarinic receptor MS): less than 30%
- inhibition, α1Δ (α1Δ adrenoreceptor): less than 30%
- inhibition, 5-HT2B (5-HT2B): less than 30%
- inhibition, 5-HT1D (5-HT1D): less than 30%
- inhibition, DOR (DOR): less than 30%
- inhibition, β1 (β1 adrenoreceptor): less than 30%
- inhibition, D1 (Dopamine receptor D1): less than 30%
- inhibition, rSigma2 (rSigma2): less than 30%
- inhibition, D5 (Dopamine receptor D5): less than 30%
- inhibition, α2A (α2A adrenoreceptor): less than 30%
- inhibition, 5-HT2C (5-HT2C): less than 30%
- inhibition, M2 (Muscarinic receptor M2): less than 30%
- inhibition, H3 (Histamine receptor H3): less than 30%
- inhibition, NET (NET): less than 30%
- inhibition, M4 (Muscarinic receptor M4): less than 30%
- inhibition, D3 (Dopamine receptor D3): less than 30%
- inhibition, H2 (Histamine receptor H2): less than 30%
- inhibition, β2 (β2 adrenoreceptor): less than 30%
- inhibition, 5-HT1B (5-HT1B): less than 30%
- inhibition, 5-HT1E (5-HT1E): less than 30%
- inhibition, D2 (Dopamine receptor D2): less than 30%
- inhibition, SERT (SERT): less than 30%
- inhibition, α1A (α1A adrenoreceptor): less than 30%
- inhibition, 5-HT2A (5-HT2A): less than 30%
- inhibition, KOR (KOR): less than 30%
- inhibition, 5-HT3 (5-HT3): less than 30%
- inhibition, D4 (Dopamine receptor D4): less than 30%
- inhibition, α1B (α1B adrenoreceptor): less than 30%
- inhibition, 5-HT7 (5-HT7): less than 30%
- inhibition, 5-HT1A (5-HT1A): less than 30%
- inhibition, M3 (Muscarinic receptor M3): less than 30%
- inhibition, DAT (DAT): less than 30%

Compound: O=C(c1ccc(Cl)cc1)C(F)(F)C(NCc1ccccc1)c1ccccc1 (stereo not drawn) [Compound 17]
- Agonist activity at the GABAB receptor (in words) (human GABAB receptor [1]): moderate activity

Compound: C/C=C/C=C/C(NCc1ccccc1)C(F)(F)C(=O)c1ccc2ccccc2c1 (stereo not drawn) [Compound 16]
- Agonist activity at the GABAB receptor (in words) (human GABAB receptor [1]): inactive

Compound: CCc1ccc(C(O)C(F)(F)C(=O)C23CC4CC(CC(C4)C2)C3)cc1 (stereo not drawn) [Compound 4]
- Agonist activity at the GABAB receptor (in words) (human GABAB receptor [1]): inactive

Compound: O=C(C12CC3CC(CC(C3)C1)C2)C(F)(F)C(O)/C=C/c1ccccc1 (stereo not drawn) [Compound 9]
- EC50 (human GABAB receptor [2]): 40 ± 3.59 µM

Compound: CC(=O)c1ccc(C(O)C(F)(F)C(=O)C23CC4CC(CC(C4)C2)C3)cc1 (stereo not drawn) [Compound 3]
- inhibition, 5-HT6 (5-HT6): less than 30%
- inhibition, rSigma1 (rSigma1): less than 30%
- inhibition, MOR (MOR): less than 30%
- inhibition, H1 (Histamine receptor H1): less than 30%
- inhibition, M1 (Muscarinic receptor M1): less than 30%
- inhibition, 5-HT5A (5-HT5A): less than 30%
- inhibition, H4 (Histamine receptor H4): less than 30%
- inhibition, β3 (β3 adrenoreceptor): less than 30%
- inhibition, MS (Muscarinic receptor MS): less than 30%
- inhibition, α1Δ (α1Δ adrenoreceptor): less than 30%
- inhibition, 5-HT2B (5-HT2B): less than 30%
- inhibition, 5-HT1D (5-HT1D): less than 30%
- inhibition, DOR (DOR): less than 30%
- inhibition, β1 (β1 adrenoreceptor): less than 30%
- inhibition, D1 (Dopamine receptor D1): less than 30%
- inhibition, rSigma2 (rSigma2): less than 30%
- inhibition, D5 (Dopamine receptor D5): less than 30%
- inhibition, α2A (α2A adrenoreceptor): less than 30%
- inhibition, 5-HT2C (5-HT2C): less than 30%
- inhibition, M2 (Muscarinic receptor M2): less than 30%
- inhibition, H3 (Histamine receptor H3): less than 30%
- inhibition, NET (NET): less than 30%
- inhibition, M4 (Muscarinic receptor M4): less than 30%
- inhibition, D3 (Dopamine receptor D3): less than 30%
- inhibition, H2 (Histamine receptor H2): less than 30%
- inhibition, β2 (β2 adrenoreceptor): less than 30%
- inhibition, 5-HT1B (5-HT1B): less than 30%
- inhibition, 5-HT1E (5-HT1E): less than 30%
- inhibition, D2 (Dopamine receptor D2): less than 30%
- inhibition, SERT (SERT): less than 30%
- inhibition, α1A (α1A adrenoreceptor): less than 30%
- inhibition, 5-HT2A (5-HT2A): less than 30%
- inhibition, KOR (KOR): less than 30%
- inhibition, 5-HT3 (5-HT3): less than 30%
- inhibition, D4 (Dopamine receptor D4): less than 30%
- inhibition, α1B (α1B adrenoreceptor): less than 30%
- inhibition, 5-HT7 (5-HT7): less than 30%
- inhibition, 5-HT1A (5-HT1A): less than 30%
- inhibition, M3 (Muscarinic receptor M3): less than 30%
- inhibition, DAT (DAT): less than 30%
